In patent US20250179047A1, “5-[7-(3,4-DIHYDRO-1H-ISOQUINOLINE-2-CARBONYL)-1,2,3,4 TETRAHYDROISOQUINOLIN-6-YL]-1H-PYRROLE-3-CARBOXAMIDE DERIVATIVES, PHARMACEUTICAL COMPOSITIONS CONTAINING THEM AND THEIR USES AS PRO-APOPTOTIC AGENTS” (LES LABORATOIRES SERVIER, priority 2022, published 2025):

Experiments:
BCL2 WT = BCL2 WT (Homo sapiens (Human), UniProt P10415); test: TR-FRET competitive binding assay, BCL2 WT; details: Ki determined from IC50, read-out: TR_FRET EKI_Bcl2 WT
Summary of the method: (§1)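 Terbium-labelled N-terminal Halo-fusion BCL2 or BCLXL (E. coli), 0.5 nM, competed against fluorescein-labelled PUMA peptide (2 or 20 nM) for 2 h at 23° C in 50 mM Hepes pH 7.5, 150 mM NaCl, 5% DMSO. TR-FRET 520/495 nm ratio gave IC50 by four-parameter fit; Ki derived from IC50.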

BCL2 G101V [1] = molecular target: BCL2 G101V (Homo sapiens, UniProt P10415, G101V); test: TR-FRET competitive binding assay, BCL2 G101V; details: BCL2 G101V; Ki determined from IC50; read-out: TR_FRET EKI_Bcl2 G101V
Summary of the method: as §1

BCL2 G101V [2] = test: TR-FRET competitive binding assay, BCL2 G101V; design: species or system human; details: ratio Ki BCL2 G101V / Ki BCL2 WT
Summary of the method: as §1

BCL2 D103Y = BCL2 D103Y (Homo sapiens, UniProt P10415, D103Y); test: TR-FRET competitive binding assay, BCL2 D103Y; details: Ki determined from IC50, read-out: TR_FRET EKI_Bcl2 D103Y
Summary of the method: as §1

BCLXL WT = BCLXL WT (Homo sapiens (Human), UniProt Q07817); test: TR-FRET competitive binding assay, BCLXL WT; details: for Ki: BCLXL WT, Ki determined from IC50, read-out: TR_FRET EKI BclxL; for TR_FRET EKI BCLxL/WT selectivty ratio: ratio Ki BCLxL / Ki BCL2 WT
Summary of the method: as §1

KMS-12-PE Bcl-2 WT = test: In vitro cytotoxicity CellTiter-Glo 48 h, KMS-12-PE Bcl-2 WT; format: cell-based; details: Homo sapiens, KMS-12-PE, C50 = concentration needed to reach 50% of the cellular viability
Summary of the method: (§2)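 Potency is expressed as C50, the compound concentration at which viability of engineered KMS-12-PE cells (Bcl-2 wild type or G101V) falls to 50%, determined from CellTiter-Glo luminescence after 48 h of treatment over 11 concentrations.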

KMS-12-PE Bcl-2 G101V = test: In vitro cytotoxicity CellTiter-Glo 48 h, KMS-12-PE Bcl-2 G101V; format: cell-based; details: for Ratio (G101V/WT): C50 KMS-12-PE Bcl-2 G101V over C50 KMS-12-PE Bcl-2 WT; for IC50: Homo sapiens, KMS-12-PE, 48 h, CellTiter-Glo, C50 = concentration needed to reach 50% of the cellular viability
Summary of the method: as §2

Sequence of BCLXL WT (Q07817 other isoform, or with tags, fused parts or gaps): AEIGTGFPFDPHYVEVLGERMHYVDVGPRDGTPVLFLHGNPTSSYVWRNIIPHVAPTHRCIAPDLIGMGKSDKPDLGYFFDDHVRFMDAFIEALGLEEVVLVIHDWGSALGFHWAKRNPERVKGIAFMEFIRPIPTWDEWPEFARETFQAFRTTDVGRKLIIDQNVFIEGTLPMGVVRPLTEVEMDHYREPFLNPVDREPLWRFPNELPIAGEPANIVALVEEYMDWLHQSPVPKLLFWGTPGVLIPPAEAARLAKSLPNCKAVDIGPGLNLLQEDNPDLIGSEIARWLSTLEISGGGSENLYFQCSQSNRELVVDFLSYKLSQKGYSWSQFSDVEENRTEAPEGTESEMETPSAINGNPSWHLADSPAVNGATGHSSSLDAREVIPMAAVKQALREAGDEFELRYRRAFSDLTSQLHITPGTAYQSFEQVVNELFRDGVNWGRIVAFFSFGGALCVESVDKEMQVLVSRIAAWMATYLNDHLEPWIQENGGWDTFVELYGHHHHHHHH

SMILES | Ki (BCL2 WT) [nM] | Ki (BCL2 G101V [1]) [nM] | TR_FRET EKI G101V/WT selectivty ratio (BCL2 G101V [2]) | Ki (BCL2 D103Y) [nM] | Ki (BCLXL WT) [nM] | TR_FRET EKI BCLxL/WT selectivty ratio (BCLXL WT) | IC50 (KMS-12-PE Bcl-2 WT) [µM] | Ratio (G101V/WT) (KMS-12-PE Bcl-2 G101V) | IC50 (KMS-12-PE Bcl-2 G101V) [µM]
Cc1c(N(C(=O)c2cc(-c3cc4c(cc3C(=O)N3Cc5ccccc5C[C@H]3CN3CCCCC3)CN(C(=O)Cc3ccc(OCCN5CCOCC5)cc3Cl)CC4)n(C)c2C)c2ccc(O)cc2)cc(C#N)n1C [Example 161, 5-[2-[2-[2-chloro-4-(2-morpholinoethoxy)phenyl]acetyl]-7-[(3S)-3-(1-piperidylmethyl)-3,4-dihydro-1H-isoquinoline-2-carbonyl]-3,4-dihydro-1H-isoquinolin-6-yl]-N-(5-cyano-1,2-dimethyl-pyrrol-3-yl)-N-(4-hydroxyphenyl)-1,2-dimethyl-pyrrole-3-carboxamide] | 0.05 | 0.3 | 7.0 | 0.14 | 2.9 | 61.7 | 0.0092 | 4.6212 | 0.0427
Cc1c(C(=O)N(c2ccc(O)cc2)c2cc(C#N)n(C(F)F)c2C)cc(-c2cc3c(cc2C(=O)N2Cc4ccccc4C[C@H]2CN2CCCCC2)CN(C(=O)Cc2ccc(OCCN(C)C4CC4)cc2)CC3)n1C [Example 163, N-[5-cyano-1-(difluoromethyl)-2-methyl-pyrrol-3-yl]-5-[2-[2-[4-[2-[cyclopropyl(methyl)amino]ethoxy]phenyl]acetyl]-7-[(3S)-3-(1-piperidylmethyl)-3,4-dihydro-1H-isoquinoline-2-carbonyl]-3,4-dihydro-1H-isoquinolin-6-yl]-N-(4-hydroxyphenyl)-1,2-dimethyl-pyrrole-3-carboxamide] | 0.16 | 0.8 | 5.3 | 0.64 | 8.3 | 51.9 | 0.01 | 5.97 | 0.0597
COc1ncc(N(C(=O)c2cc(-c3cc4c(cc3C(=O)N3Cc5ccccc5C[C@H]3CN3CCCCC3)CN(C(=O)Cc3ccc(OCCN5CCOCC5)cc3F)CC4)n(C)c2C)c2ccc(O)cc2)cc1F [Example 164, 5-[2-(2-{2-fluoro-4-[2-(morpholin-4-yl)ethoxy]phenyl}acetyl)-7-{[(3S)-3-(piperidin-1-ylmethyl)-3,4-dihydro-1H-isoquinolin-2-yl]carbonyl}-3,4-dihydro-1H-isoquinolin-6-yl]-N-(5-fluoro-6-methoxypyridin-3-yl)-N-(4-hydroxyphenyl)-1,2-dimethylpyrrole-3-carboxamide] | 0.08 | 0.6 | 7.5 | 0.13 | 9.3 | 120.8 | 0.0054 | 9.1529 | 0.0497
Cc1c(C(=O)N(c2ccc(O)cc2)c2ccc(OC(C)C)c(C#N)c2)cc(-c2cc3c(cc2C(=O)N2Cc4ccccc4C[C@H]2CN2CCCCC2)CN(C(=O)Cc2ccc(OCCN4CCOCC4)cc2F)CC3)n1C [Example 168, N-(3-cyano-4-isopropoxyphenyl)-5-[2-(2-{2-fluoro-4-[2-(morpholin-4-yl)ethoxy]phenyl}acetyl)-7-{[(3S)-3-(piperidin-1-ylmethyl)-3,4-dihydro-1H-isoquinolin-2-yl]carbonyl}-3,4-dihydro-1H-isoquinolin-6-yl]-N-(4-hydroxyphenyl)-1,2-dimethylpyrrole-3-carboxamide] | 0.11 | 0.5 | 4.7 | 0.22 | 11 | 100.0 | 0.0075 | 7.4599 | 0.0558
CCOC[C@@H]1Cc2ccccc2CN1C(=O)c1cc2c(cc1-c1cc(C(=O)N(c3ccc(O)cc3)c3cc(C#N)n(C)c3C)c(C)n1C)CCN(C(=O)Cc1ccc(OCCN3CCOCC3)cc1F)C2 [Example 169, N-(5-cyano-1,2-dimethyl-pyrrol-3-yl)-5-[7-[(3S)-3-(ethoxymethyl)-3,4-dihydro-1H-isoquinoline-2-carbonyl]-2-[2-[2-fluoro-4-(2-morpholinoethoxy)phenyl]acetyl]-3,4-dihydro-1H-isoquinolin-6-yl]-N-(4-hydroxyphenyl)-1,2-dimethyl-pyrrole-3-carboxamide] | 0.09 | 0.4 | 4.6 | 0.36 | 1.2 | 12.8 | 0.0049 | 5.082 | 0.0248
Cc1c(N(C(=O)c2cc(-c3cc4c(cc3C(=O)N3Cc5ccccc5C[C@H]3COCC3CC3)CN(C(=O)Cc3ccc(OCCN5CCOCC5)cc3F)CC4)n(C)c2C)c2ccc(O)cc2)cc(C#N)n1C [Example 170, N-(5-cyano-1,2-dimethyl-pyrrol-3-yl)-5-[7-[(3S)-3-(cyclopropylmethoxymethyl)-3,4-dihydro-1H-isoquinoline-2-carbonyl]-2-[2-[2-fluoro-4-(2-morpholinoethoxy)phenyl]acetyl]-3,4-dihydro-1H-isoquinolin-6-yl]-N-(4-hydroxyphenyl)-1,2-dimethyl-pyrrole-3-carboxamide] | 0.3 | 1.3 | 4.3 | 1.06 | 4.5 | 15.0 | 0.0047 | 6.4831 | 0.0306

The remaining compounds from weak to strong by Ki (BCL2 WT), led by results:

Ki (BCL2 WT) [nM] | Ki (BCL2 G101V [1]) [nM] | TR_FRET EKI G101V/WT selectivty ratio (BCL2 G101V [2]) | Ki (BCL2 D103Y) [nM] | Ki (BCLXL WT) [nM] | TR_FRET EKI BCLxL/WT selectivty ratio (BCLXL WT) | SMILES | IC50 (KMS-12-PE Bcl-2 WT) [µM] | Ratio (G101V/WT) (KMS-12-PE Bcl-2 G101V) | IC50 (KMS-12-PE Bcl-2 G101V) [µM]
0.05 | 0.3 | 6.5 | 0.15 | 8.4 | 171.4 | COc1ccc(N(C(=O)c2cc(-c3cc4c(cc3C(=O)N3Cc5ccccc5C[C@H]3CN3CCCCC3)CN(C(=O)Cc3ccc(OCCN5CCOCC5)cc3F)CC4)n(C)c2C)c2ccc(O)cc2)cc1C#N [Example 167, N-(3-cyano-4-methoxyphenyl)-5-[2-(2-{2-fluoro-4-[2-(morpholin-4-yl)ethoxy]phenyl}acetyl)-7-{[(3S)-3-(piperidin-1-ylmethyl)-3,4-dihydro-1H-isoquinolin-2-yl]carbonyl}-3,4-dihydro-1H-isoquinolin-6-yl]-N-(4-hydroxyphenyl)-1,2-dimethylpyrrole-3-carboxamide] | 0.0078 | 8.5769 | 0.0669
0.04 | 0.8 | 21.1 | 0.13 | 10 | 277.8 | COc1ccc(N(C(=O)c2cc(-c3cc4c(cc3C(=O)N3Cc5ccccc5C[C@H]3CN3CCCCC3)CN(C(=O)Cc3ccc(OCCN5CCOCC5)cc3F)CC4)n(C)c2C)c2ccc(O)cc2)cn1 [Example 165, 5-[2-(2-{2-fluoro-4-[2-(morpholin-4-yl)ethoxy]phenyl}acetyl)-7-{[(3S)-3-(piperidin-1-ylmethyl)-3,4-dihydro-1H-isoquinolin-2-yl]carbonyl}-3,4-dihydro-1H-isoquinolin-6-yl]-N-(4-hydroxyphenyl)-N-(6-methoxypyridin-3-yl)-1,2-dimethylpyrrole-3-carboxamide] | 0.0092 | 9.0393 | 0.0828
0.04 | 0.3 | 5.8 | 0.16 | 2.7 | 62.8 | Cc1c(N(C(=O)c2cc(-c3cc4c(cc3C(=O)N3Cc5ccccc5C[C@H]3CN3CCCCC3)CN(C(=O)Cc3ccc(OCCN5CCOC[C@H]5C)cc3F)CC4)n(C)c2C)c2ccc(O)cc2)cc(C#N)n1C [Example 166, N-(5-cyano-1,2-dimethylpyrrol-3-yl)-5-{2-[2-(2-fluoro-4-{2-[(3R)-3-methylmorpholin-4-yl]ethoxy}phenyl)acetyl]-7-{[(3S)-3-(piperidin-1-ylmethyl)-3,4-dihydro-1H-isoquinolin-2-yl]carbonyl}-3,4-dihydro-1H-isoquinolin-6-yl}-N-(4-hydroxyphenyl)-1,2-dimethylpyrrole-3-carboxamide] | 0.0045 | 6.5639 | 0.0298
0.03 | 0.2 | 6.3 | 0.18 | 1.5 | 55.6 | Cc1c(C(=O)N(c2ccc(O)cc2)c2cc(C#N)n(C(F)F)c2C)cc(-c2cc3c(cc2C(=O)N2Cc4ccccc4C[C@H]2CN2CCCCC2)CN(C(=O)Cc2ccc(OCCN4CCN(C)CC4)cc2F)CC3)n1C [Example 160, N-[5-cyano-1-(difluoromethyl)-2-methylpyrrol-3-yl]-5-[2-(2-{2-fluoro-4-[2-(4-methylpiperazin-1-yl)ethoxy]phenyl}acetyl)-7-{[(3S)-3-(piperidin-1-ylmethyl)-3,4-dihydro-1H-isoquinolin-2-yl]carbonyl}-3,4-dihydro-1H-isoquinolin-6-yl]-N-(4-hydroxyphenyl)-1,2-dimethylpyrrole-3-carboxamide] | 0.0113 | 3.8053 | 0.043
